Consider one substance from patent US5478807A, “Use of relaxin in the treatment of bradycardia” (Genentech, Inc., priority 1992, dated 1995).

Several values for one entry are separate records, joined by “and”; a condition that tells them apart may be missing. Equal values may be shown once.

The target of assay [1] is T1, relaxin binding sites in the rat uterus (Rattus norvegicus, UniProt Q6R6I6).
T1 construct: The frozen tissues were sectioned to 16 μm thickness; from tissue; host or cells: rat uterus (uterine horn, cervix) frozen sections
T1 sequence (Q6R6I6 1-758): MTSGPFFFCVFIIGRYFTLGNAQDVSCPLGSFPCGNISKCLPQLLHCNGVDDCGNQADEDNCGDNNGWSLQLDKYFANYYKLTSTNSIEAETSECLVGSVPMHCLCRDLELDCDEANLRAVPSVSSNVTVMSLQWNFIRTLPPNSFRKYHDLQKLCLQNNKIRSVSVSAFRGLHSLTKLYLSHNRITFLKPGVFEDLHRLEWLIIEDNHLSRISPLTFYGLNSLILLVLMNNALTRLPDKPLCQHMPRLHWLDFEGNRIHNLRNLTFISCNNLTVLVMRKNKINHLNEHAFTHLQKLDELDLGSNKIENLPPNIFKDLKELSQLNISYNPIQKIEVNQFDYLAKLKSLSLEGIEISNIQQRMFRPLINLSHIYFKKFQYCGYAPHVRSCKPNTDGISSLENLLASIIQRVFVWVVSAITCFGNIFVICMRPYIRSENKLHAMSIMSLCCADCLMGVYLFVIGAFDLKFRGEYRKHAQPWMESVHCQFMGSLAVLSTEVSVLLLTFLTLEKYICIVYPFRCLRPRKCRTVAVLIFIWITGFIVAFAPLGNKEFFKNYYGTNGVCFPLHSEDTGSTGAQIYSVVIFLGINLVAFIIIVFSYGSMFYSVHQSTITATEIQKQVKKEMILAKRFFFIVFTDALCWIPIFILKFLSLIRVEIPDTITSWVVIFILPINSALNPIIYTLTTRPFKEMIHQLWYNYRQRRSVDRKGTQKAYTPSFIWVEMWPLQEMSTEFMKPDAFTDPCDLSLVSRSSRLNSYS
As to the kind of experiment: Displacement of 32P-relaxin binding in rat uterus tissue sections (autoradiography). The procedure: Ten-week-old normal male and cyclic female Sprague-Dawley rats (Charles River Breeding Laboratories, Wilmonton, Mass.) were used for binding specificity and binding displacement experiments. These were given food and water ad libidium and housed in a room with the ambient temperature controlled around 21° C.
The frozen tissues were sectioned to 16 μm thickness using a Reichert-Jung Model 2800 Frigocut cryostat (Cambridge Instruments). Tissue sections were fixed onto gelatin/chromium potassium sulfate treated microscope slides by warming, and immediately refrozen and stored at -80° C. overnight or longer. […]
Regions of binding were determined by overlaying the autoradiographs with adjacent sections counterstained with hematoxylin-eosin. […] Pseudocolor reconstruction and quantitative analysis of ^32 P-relaxin binding autoradiographs were performed with a RAS-3000 image analysis system (Amersham). The OD or radioactivities (cpm) of bound ^32 P relaxin (maximum binding in a particular region) were quantified by computerized densitometry based on parallel sets of ^32 P-relaxin standards (ranging from 50 to 2000 cpm) blotted onto nitrocellulose membranes (Trans-Blot SF, Bio-Rad, Richmond, Calif.). […] The dissociation constant (Kd) for relaxin was calculated by the method of Cheng and Prusoff [Biochem. Pharmacol. 22, 3099-3108 (1973)].

The subject of a further assay is left atrium. As to the kind of experiment: Left atrial contraction, isolated electrically paced left atrium. On the set-up: species or system rat. The conditions noted are these: for left atrium contractile force % Δ, mean (X): mean of four left atria; for left atrium contractile force % Δ: single experiment. The protocol:
Krebs-Henseleit solution was prepared with the following composition (in millimoles): NaCl 118; KCl 4.7; MgSO4 1.64; NaHCO3 24.88; KH2 PO4 1.18; d-glucose 11.1; bubbled with 95% O2 /5% CO2; CaCl2 2.52.
Human (H2) relaxin (hRLx-2, 1.5 mg/ml; Genentech) was diluted fresh daily to desired concentrations (500:1; 5000:1; 50000:1) in Krebs-Henseleit solution.
Male Wistar rats (Charles River) weighing 475-525 g each, were anesthetized with sodium pentobarbital (60 mg/kg). After thoracotomy, the heart was removed rapidly and placed in cold (4° C.) Krebs-Henseleit solution until spontaneous contractions ceased. The right and left atria were excised.
Tissue was bathed in an organ chamber holding 42 ml Krebs-Henseleit solution that was aerated with 95% O2 /5% CO2 and heated to 37° C. with a temperature controlled water jacket. Tissue contractions were measured with force-displacement transducers (Grass FT 0.3) and recorded on chart paper (Grass moled 79 polygraph). The rates of contractions were determined with a cardiotachometer (Grass). Electrical stimulation of tissue was induced through bipolar clip electrodes connected to a stimulator through a stimulus isolation unit (Grass model S48).
A stainless steel clip was attached to the distal end of the left atrium and the proximal end was attached to a bipolar electrode. The electrode assembly was secured within the organ chamber and the upper clip was attached to the force-displacement transducer. The position of the transducer was adjusted to yield 1.0 g resting tension. The left atrium was stimulated at 3Hz at 1.5×threshold. The duration (3 msec) and intensity of the pulses (1.5-3.0 Volts) were kept constant throughout an experiment.
In all experiments the atria were allowed to stabilize for 30 minutes prior to addition of drugs. […] Thus, cumulative dose-response curves were generated. At 10 minute intervals, relaxin was added to each organ chamber to obtain bath concentrations of 100 pg/ml, 300 pg/ml, 1 ng/ml, 3 ng/ml, 10 ng/ml and 30 ng/ml.
Measurement of contraction rate and force of contraction following each dose of relaxin were obtained after responses reached a steady state. Rate was determined directly from the output of the cardiotachometer. Force of contraction was measured as the magnitude of the contractile twitches. In order to adjust for variations between tissues, data are expressed as percent changes from pre-drug values, as means±standard errors. Measurements of rate were obtained in seven right atria; measurement of contractile force were obtained in four left atria.

The test system of assay [2] is rat isolated atrial preparations. The conditions noted are these: cited from earlier work.

The Kd is the constant that tells how readily two partners part at equilibrium. For the substance relaxin, the Kd in assay [1] (rat uterus (uterine horn, cervix), displacement of 100 pM 32P-relaxin, mean±S.E. of two regions, read-out: dissociation constant (Kd)) is 1.3 ± 0.22 nM. Moreover, in assay [1] (uterus, increasing concentrations of unlabeled relaxin), the “extent of displacement of 32P-relaxin binding” value was “partial displacement”. Also, the “left atrium contractile force % Δ, mean (X)” value in the assay with left atrium (100 pg) was -6%; in the assay on left atrium (300 pg), -9.5%; in the assay on left atrium (1 ng), 1.0%; in the assay with left atrium (3 ng) it was 14.3%; in the assay on left atrium (10 ng), 30%; in the assay with left atrium (30 ng), 37.8%. In addition, the “left atrium contractile force % Δ” value with left atrium (100 pg, change from pre-drug value) is -12% and -5% and -4% and -3%; in the assay with left atrium (10 ng), 22% and 38% and 40% and 20%. The “peak decrease in contractile force” value with left atrium (at 300 pg/ml) turned out to be 10%. Besides, in the assay on left atrium (at 30 ng/ml), the “peak increase in contractile force” value worked out at 38%. Besides, the “point of half maximal increase in contractile force” value with left atrium (left atrium) was “about 4.8 ng/ml”. In addition, the “chronotropic and inotropic effects” value in assay [2] is “positive chronotropic and inotropic effects”.
